Where “and” joins values, the source holds several entries; their conditions need not be identical. Equal entries are not always repeated. Where two headings read alike, the source gives them in different places.
Assays:
ER-negative SUM149 cells = experiment: MTT cell proliferation assay on SUM149 cells; assay type: cell-based; details: read-out: IC50 growth inhibition
Procedure: (§1) MDA-MB-453 (ER negative, Her2 overexpressing), MDA-MB-468 (triple negative) and MCF7 (ER positive, Her2 low) cells, HT29 (p53 positive human colon cancer cells) (ATCC, Manassas, Va.) were grown in Dulbecco's Modified Eagle's medium (DMEM) (Gibco BRL Life Technologies, Inc., Rockville, Md.) containing 10% (v/v) fetal bovine serum (FBS) (Gibco BRL) at 37° C., 5% C02. SUM 149 (Her2 overexpressing, ER low) (the gift of Dr. R. Parsons, Columbia University Medical Center, New York, N.Y.) were cultivated in Ham's F-12 medium with 10% FBS. MCF7 and MCF7/Her2-18 (MCF7 cells transfected with a full length Her2 cDNA coding region, 45-fold increase Her2) were the kind gift of Dr. Dennis Slamon (Los Angeles, Calif.). These cells were maintained in RPMI supplemented with 10% FBS plus glutamine (1%) and PSF (1%) (Gibco, Rockville Md.).
(§2) MTT assay: the MTT {3-(4,5-dimethyl-2-thiazol)-2,5-diphenyl-2H tetrazolilum bromide} (Dojindo; Tokyo, Japan) cell proliferation assay system (Roche Diagnostic, Mannheim, Germany) was used to determine the sensitivity of the various cell lines to agents. Cells were seeded at 1×10^4 cells/well in 96-well plates and allowed to attach for 24 h. […] The cells were treated for 96 or 120 h, after which they were incubated with MTT reagents and the absorbance read at 650 and 575 nm. For cell growth assays, the data are expressed as mean+/−standard deviation. […]

[1] = tested on: MDA-MB-453 Her2 overexpressing human breast cancer cells; experiment: MTT cell proliferation assay on MDA-MB-453 cells; assay type: cell-based; details: for Proliferation (relative to control = 1) / % proliferation: MDA-MB-453, 96 h
Procedure: Cells were exposed to increasing concentrations of agents for 96 h and the number of viable cells determined by the MTT assay.

MDA-MB-468 cells = experiment: Real-time RT-PCR of specific mRNAs in MDA-MB-468 cells; assay type: cell-based, human; details: for increase in expression of RNA of CDKN1A: 4 μg/ml, MDA-MB-468
Procedure: Real-time RT-PCR analysis was performed on 2 technical replicates of at least 2 biological sample replicates.
Real-time quantitative RT-PCR methods were used to determine the nature of the RNA induced by treatment with CA, using the Real Time PCR machine Stratagene MX3005P QPCR System.
Real-time RT-PCR analysis was performed to examine the mode of action of CA. In MDA-MB-468 cells, CA at 4 μg/ml induced an increase in expression of RNA of the tumor suppressor gene CDKN1A; for MDA-MB-468 cells (6 h: 1.51-logfold; 24 h: 1.61-logfold) (FIG. 3A); for SUM149 cells (6 h: 2.7-logfold). CA had little effect on the expression of the tumor suppressor gene BRCA1.

[2] = tested on: MDA-MB-468 triple negative breast cancer cells; experiment: MTT cell proliferation assay on MDA-MB-468 cells; assay type: cell-based, human; details: for IC50: read-out: IC50 growth inhibition
Procedure: as §1
MTT assay: the MTT {3-(4,5-dimethyl-2-thiazol)-2,5-diphenyl-2H tetrazolilum bromide} (Dojindo; Tokyo, Japan) cell proliferation assay system (Roche Diagnostic, Mannheim, Germany) was used to determine the sensitivity of the various cell lines to agents. Cells were seeded at 1×10^4 cells/well in 96-well plates and allowed to attach for 24 h. The medium was replaced with fresh medium containing DMSO or compound. The cells were treated for 96 or 120 h, after which they were incubated with MTT reagents and the absorbance read at 650 and 575 nm. For cell growth assays, the data are expressed as mean+/−standard deviation. Control and treated cells were compared using the student's t-test (p<0.05).
To determine the Combination Index (CI), cells were treated with all combinations of 4 or 5 concentrations of each of the agents tested and a solvent control. The results of the MTT assay were analyzed for possible synergistic effects using the median effect principle. Variable ratios of drugs were employees and mutually exclusive equations were assumed.

[3] = tested on: MCF7 (ER positive, Her2 low) cells; experiment: MTT cell proliferation assay on MCF7 cells; assay type: cell-based; details: Homo sapiens, read-out: IC50 growth inhibition
Procedure: as §1, §2

[4] = MDA-MB-468 cells, MTT assay, listed as CA

CC(C)c1cc2c(c(O)c1O)[C@@]1(C(=O)O)CCCC(C)(C)[C@@H]1CC2 [carnosic acid]
IC50 (ER-negative SUM149 cells): 1.7 µg/mL and 5.1 µM
inhibition of cell growth ([1]; 0.5 μg/ml, 96 h, MTT): no inhibition
Proliferation (relative to control = 1) ([1]; 0.5 ug/ml, MTT): 1.07
% proliferation ([1]; 0.5 μg/ml, MTT): 107%
Proliferation (relative to control = 1) ([1]; 2 ug/ml, MTT): 0.989
% proliferation ([1]; 2 μg/ml, MTT): 98.9%
Proliferation (relative to control = 1) ([1]; 5 ug/ml, MTT): 0.915
% proliferation ([1]; 5 μg/ml, MTT): 91.5%
Proliferation (relative to control = 1) ([1]; 10 ug/ml, MTT): 0.758
Proliferation (relative to control = 1) ([1]; 20 ug/ml, MTT): 0.573
IC50 ([1]; Homo sapiens, MDA-MB-453 cells, MTT assay, read-out: IC50, concentration that caused 50% inhibition of cell proliferation): 3 µg/mL and 7 µM
increase in expression of RNA of CDKN1A (MDA-MB-468 cells; 6 h): 1.51 logfold
increase in expression of RNA of CDKN1A (MDA-MB-468 cells; 24 h): 1.61 logfold
effect on expression of the vitamin D receptor (MDA-MB-468 cells; 6 h, real-time RT-PCR): slight increase in expression
effect on expression of BRCA1 (MDA-MB-468 cells; real-time RT-PCR): little effect
effect on expression of CYP24A1 (MDA-MB-468 cells; real-time RT-PCR): significant increase in expression
IC50 ([2]; Homo sapiens, MDA-MB-468, MDA-MB-468 cells, MTT assay): 2 µg/mL and 6 µM
viability at 6 µM ([2]; Homo sapiens, MDA-MB-468, CA 2 μg/ml (6 μM) alone, read-out: percent viable cells): 89.4%
IC50 growth inhibition [2, 4]: 3 µg/mL
IC50 [2, 4]: 9 µM
IC50 [3]: 25 µg/mL and 75 µM

Source: patent US9801844B2, “Methods and compositions for the treatment of cancer” (priority 2012, dated 2017)
